From publication PMC11689655, “High-throughput screening of dual-target inhibitors for SARS-CoV-2 main protease and papain-like protease from Chebulae Fructus: in silico prediction and experimental verification” (Frontiers in Microbiology, 2024)
Like-named read-outs stand apart in the source and are kept apart here.

Tests used:
SARS-CoV-2 Omicron EG.5 = experiment: Antiviral activity (CPE inhibition) in Vero E6 cells, Omicron EG.5; assay type: cell-based; settings: read-out: EC50 against Omicron EG.5 variant
SARS-CoV-2 Omicron BA.5 = experiment: Antiviral activity (CPE inhibition) in Vero E6 cells, Omicron BA.5; assay type: cell-based; settings: read-out: EC50 against Omicron BA.5 variant
[1] = Severe acute respiratory syndrome coronavirus 2, Vero C1008, 48 h

SMILES	EC50 (SARS-CoV-2 Omicron EG.5; [1])	EC50 (SARS-CoV-2 Omicron BA.5; [1])	EC50 (SARS-CoV-2 Omicron EG.5)	EC50 (SARS-CoV-2 Omicron BA.5)
O=C(OC[C@H]1O[C@@H](OC(=O)c2cc(O)c(O)c(O)c2)[C@H](OC(=O)c2cc(O)c(O)c(O)c2)[C@@H](OC(=O)c2cc(O)c(O)c(O)c2)[C@@H]1OC(=O)c1cc(O)c(O)c(O)c1)c1cc(O)c(O)c(O)c1 [PGG, 1,2,3,4,6-penta-O-galloyl-β-D-glucose]	15.4 µM	3.2 µM	–	–
Cn1cnc(Cn2c(=O)[nH]/c(=N\c3cc4cn(C)nc4cc3Cl)n(Cc3cc(F)c(F)cc3F)c2=O)n1 [S-217622, reference compound]	–	–	0.06 µM	0.09 µM
O=C(OC[C@H]1O[C@@H](OC(=O)c2cc(O)c(O)c(O)c2)[C@H](OC(=O)c2cc(O)c(O)c(O)c2)[C@@H](OC(=O)c2cc(O)c(O)c(O)c2)[C@@H]1O)c1cc(O)c(O)c(O)c1 [TGG, 1,2,3,6-tetra-O-galloyl-β-D-glucose]	37.3 µM	25.7 µM	–	–
